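Results reflect a 48-hour exposure of cells in 96-well plates to compound at five concentrations. At the TGI there is no net growth.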
Tests used:
Assay in all cases: growth of human tumour cells (NCI), 48 h
[1] = system: A498 renal
[2] = system: ACHN renal
[3] = system: CAKI-1 renal
[4] = system: EKVX NSCLC
[5] = system: HS 578T breast
[6] = system: HT29 colon
[7] = system: M14 melanoma
[8] = system: MCF7 breast
[9] = system: MDA-MB-231 breast
[10] = system: MDA-MB-435
[11] = system: NCI/ADR-RES ovarian
[12] = system: OVCAR-4 ovarian
[13] = system: OVCAR-5 ovarian
[14] = system: OVCAR-8 ovarian
[15] = system: RPMI-8226 leukemia
[16] = system: SK-MEL-5 melanoma
[17] = system: SK-OV-3 ovarian
[18] = system: SNB-19 CNS
[19] = system: U251 CNS
[20] = system: UO-31 renal

SMILES	TGI [1] [µM]	TGI [2] [µM]	TGI [3] [µM]	TGI [4] [µM]	TGI [5] [µM]	TGI [6] [µM]	TGI [7] [µM]	TGI [8] [µM]	TGI [9] [µM]	TGI [10] [µM]	TGI [11] [µM]	TGI [12] [µM]	TGI [13] [µM]	TGI [14] [µM]	TGI [15] [µM]	TGI [16] [µM]	TGI [17] [µM]	TGI [18] [µM]	TGI [19] [µM]	TGI [20] [µM]
O=c1oc2nc(-c3ccccc3)cc(C(F)(F)F)c2n1Cc1ccccc1	9.48	> 100	> 100	> 100	> 75.3	> 100	> 82.9	> 100	> 100	3.13	> 60.4	> 100	> 100	> 100	> 30.8	> 100	> 100	> 100	> 100	> 100
CCCCCC(=O)Nc1nc[nH]c1C(N)=O	> 100	> 100	> 100	> 100	> 100	> 100	> 100	> 100	> 100	> 100	> 100	> 100	> 100	> 100	> 100	> 100	> 100	> 100	> 100	> 100
O=C(O)C1=C(C(=O)O)N(c2ccncc2)C(c2ccco2)=CC1c1ccccc1[N+](=O)[O-] (stereo not given)	28.1	3.13	34.6	26.6	62	3.2	22.5	10.1	30.7	> 56	> 69.9	25.9	33.8	> 59	> 24.6	> 47.4	44.1	35.5	28	20.6
O=C1Nc2ccccc2S/C1=C\c1cccc(C(F)(F)F)c1	> 100	> 100	37.4	> 100	> 100	> 100	> 100	> 100	> 100	> 100	> 100	> 100	> 100	> 100	> 100	> 100	> 100	> 100	> 100	> 100
Nc1c(-c2nc3ccccc3o2)sc(=S)n1-c1ccc(Cl)cc1	99.7	24.1	53.4	> 100	46.4	> 100	> 100	> 100	64.5	> 100	74.1	31.6	> 100	30.2	> 100	56.9	33.2	39.5	37.5	> 100
COc1ccc2c(c1)c1c(n2CCN(C)C)-c2cccc(OC)c2CC1	44.9	38.8	29.1	35	33.5	14	24.9	29.5	35.2	28	47.3	46.9	29.8	42.4	18.2	35	35	46.8	32.6	35.4
COc1cc(=O)n2c3ccccc3n(C)c2c1C#N	> 100	> 100	> 100	> 100	> 100	> 100	> 100	> 100	> 100	> 100	> 100	> 100	> 100	> 100	> 100	> 100	> 100	> 100	> 100	> 100
CN1C(=O)N/C(=C\c2ccc(S(=O)(=O)N/N=C\C(O)C(O)C(O)CO)cc2)C1=O (stereo not given)	> 100	> 100	> 100	> 100	> 100	> 100	> 100	> 100	> 100	> 100	> 100	> 100	> 100	> 100	> 100	> 100	> 100	> 100	> 100	> 100
O=C(c1ccc2ccccc2c1)N(Cc1cccnc1)C(=S)N(Cc1cccnc1)C(=O)c1ccc2ccccc2c1	> 100	> 100	44	77.1	> 100	81.2	55	> 100	44.1	> 100	88.7	45.3	> 100	66.5	> 100	41.3	> 100	> 100	38.6	97.8
